Publication PMC3921138, “Identification and Biochemical Characterization of Four Wood-Associated Glucuronoxylan Methyltransferases in Populus” (PLoS ONE, 2014)

Experiments:
Experiment in all cases: radiometric […]-methyl transfer, Lineweaver-Burk
Assay type in all cases: biochemical
Conditions in all cases: co-substrate S-[14C-methyl]adenosylmethionine; 100 mM Tris-HCl pH 8.0, 1 mM CoCl2, 0.5% Triton X-100; temperature of kinetic assay not stated; read-out: apparent K m
[1] = molecular target: T1, PtrGXM3 (Populus trichocarpa, UniProt A9PC88)
T1 construct: gene GXM3; transmembrane domain removed; E. coli; full-length start MRPNKNQ, recombinant start SSPRSNP, C-terminus SGRPFCP (translated from primers)
T1 sequence (A9PC88 34-304): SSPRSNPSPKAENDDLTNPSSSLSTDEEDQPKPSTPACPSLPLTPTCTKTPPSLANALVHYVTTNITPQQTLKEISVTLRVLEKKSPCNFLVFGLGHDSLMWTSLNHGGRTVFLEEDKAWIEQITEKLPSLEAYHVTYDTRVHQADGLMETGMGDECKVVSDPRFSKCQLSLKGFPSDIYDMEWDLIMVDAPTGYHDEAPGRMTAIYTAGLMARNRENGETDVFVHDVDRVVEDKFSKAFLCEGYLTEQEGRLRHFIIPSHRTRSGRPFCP

[2] = molecular target: T2, PtrGXM2 (Populus trichocarpa, UniProt W8JCL4)
T2 construct: gene GXM2; transmembrane domain removed; E. coli; full-length start MRPKSQQ, recombinant start SSSQESS, C-terminus DRPFCPE (translated from primers)
T2 sequence (W8JCL4 33-288): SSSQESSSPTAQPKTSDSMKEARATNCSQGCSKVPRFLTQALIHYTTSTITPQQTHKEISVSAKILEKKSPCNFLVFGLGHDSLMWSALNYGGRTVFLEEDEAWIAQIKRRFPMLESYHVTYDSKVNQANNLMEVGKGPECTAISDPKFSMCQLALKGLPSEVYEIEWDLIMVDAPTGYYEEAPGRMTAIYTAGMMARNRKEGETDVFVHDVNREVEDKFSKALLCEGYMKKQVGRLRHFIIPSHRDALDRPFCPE

[3] = molecular target: T3, PtrGXM4 (Populus trichocarpa, UniProt W8JN21)
T3 construct: gene GXM4; transmembrane domain removed; E. coli; full-length start MRSKNQS, recombinant start SPRPNSS, C-terminus SGKPFCP (translated from primers)
T3 sequence (W8JN21 34-301): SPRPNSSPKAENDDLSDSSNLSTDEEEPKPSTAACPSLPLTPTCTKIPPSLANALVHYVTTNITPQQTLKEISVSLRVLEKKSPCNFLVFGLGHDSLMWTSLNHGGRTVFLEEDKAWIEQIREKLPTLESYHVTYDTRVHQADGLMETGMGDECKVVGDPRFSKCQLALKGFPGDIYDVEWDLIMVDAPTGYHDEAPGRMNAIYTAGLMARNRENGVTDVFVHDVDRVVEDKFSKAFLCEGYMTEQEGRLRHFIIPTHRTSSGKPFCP

[4] = molecular target: T4, PtrGXM1 (Populus trichocarpa, UniProt W8JDL1)
T4 construct: gene GXM1; transmembrane domain removed; E. coli; full-length start MRPKGQ, recombinant start PSSQESP, C-terminus DRPFCPE (translated from primers)
T4 sequence (W8JDL1 33-288): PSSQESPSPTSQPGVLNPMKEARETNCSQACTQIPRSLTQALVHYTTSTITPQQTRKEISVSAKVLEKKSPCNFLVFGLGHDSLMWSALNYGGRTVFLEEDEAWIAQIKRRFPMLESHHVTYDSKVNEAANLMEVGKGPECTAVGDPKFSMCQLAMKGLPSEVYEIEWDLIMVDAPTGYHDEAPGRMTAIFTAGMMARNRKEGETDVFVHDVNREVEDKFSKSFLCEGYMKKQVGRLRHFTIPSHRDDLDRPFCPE

Km [1]: 300 µM
Km [2]: 3980 µM
Km [3]: 290 µM
Km [4]: 3250 µM
Substance: GlcA-substituted Xyl4
